From patent EP4722228A1, “NEW COMPOUND TARGETING MUSK AND USE THEREOF” (The University of Tokyo, priority 2023, dated 2024)
Bridge positions count the residues as written; N and C are the ends. Square brackets hold non-standard residues; d marks the D form. Peptide text beside a SMILES is read from it. I, II: the chains in the order shown. * marks the point of attachment. Palmitoyl = CCCCCCCCCCCCCCCC(=O)*; PEG3 = NCCOCCOCCOCCC(=O)O; Dap = NC[C@H](N)C(=O)O

How the values were obtained:
human MuSK = target: T1, human MuSK (Homo sapiens, UniProt O15146); assay: MuSK dimerization activity (NanoBiT assay); type: biochemical
T1 construct: fused downstream of the extracellular portion (amino acids 1-493) of human MuSK cDNA clone; made in house; host or cells: Expi293 cells; unpurified culture supernatant used
T1 sequence (O15146 24-493) 1: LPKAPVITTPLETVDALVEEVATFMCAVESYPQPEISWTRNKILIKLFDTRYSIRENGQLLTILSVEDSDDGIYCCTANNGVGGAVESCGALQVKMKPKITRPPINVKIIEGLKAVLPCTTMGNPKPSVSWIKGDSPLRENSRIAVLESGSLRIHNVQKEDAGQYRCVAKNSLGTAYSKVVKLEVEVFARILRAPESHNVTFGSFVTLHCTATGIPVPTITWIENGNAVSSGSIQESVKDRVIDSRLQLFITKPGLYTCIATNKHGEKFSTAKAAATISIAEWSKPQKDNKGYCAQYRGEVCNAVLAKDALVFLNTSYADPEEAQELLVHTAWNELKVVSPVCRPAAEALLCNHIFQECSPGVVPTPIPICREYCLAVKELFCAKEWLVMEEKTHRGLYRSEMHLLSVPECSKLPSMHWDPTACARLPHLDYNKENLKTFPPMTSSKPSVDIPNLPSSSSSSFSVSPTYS
T1 sequence (O15146 24-493) 2: T1 sequence (O15146 24-493) 1
Experimental: Expi293 cells were purchased from Thermo Fisher Scientific Inc. and used. For subculture, DMEM (high glucose, GlutaMAX supplement, pyruvate; GIBCO) supplemented with 10% fetal bovine serum (FBS; GIBCO) was used. For passage, after the culture medium was removed by suction, adherent cells were washed with phosphate buffered saline (PBS(-)), and HBSS (GIBCO) containing no Mg^2+ and Ca^2+ and containing 0.25% trypsin and 1 mM ethylenediaminetetraacetic acid was added, and the mixture was reacted in a CO2 incubator (37°C, 5% CO2) for 5 minutes. The detached cells were collected and then centrifuged at 1000 rpm at 4°C for 5 minutes (Sorvall X4R Pro, Thermo Fisher Scientific Inc.). After the supernatant was removed by suction, the cells were suspended in fresh culture medium and expanded in a new culture vessel.
In the steady state, their affinity is estimated to be about 190 µM, and the amount of luminescence is very small even in the presence of substrate. […] A technique for evaluating interactions between two arbitrary proteins by utilizing this property is the NanoBiT assay. […]
The effect of the U-bodies and their complexes on clustering of acetylcholine receptors was evaluated. […]

rat PTMG model = assay: Rat PTMG myasthenia gravis model induced by anti-acetylcholine receptor monoclonal antibody (mAb35); type: in vivo; details: 0-72 hr after antibody
Experimental: (§1) 5-week-old female rats (n=20, LEW/CrlCrlj, 4 weeks old when carried in, Jackson Laboratory Japan) were divided into four groups (Group A, Group B, Group C, and Group D) using body weight measurement results as indexes. Vehicle was administered to Group A, and the test compound MuSK7-pal dissolved in vehicle was administered intravenously to each of Group B (3 mg/kg), Group C (2 mg/kg), and Group D (1 mg/kg) (Day 0). Two hours after intravenous administration, an anti-nicotinic acetylcholine receptor monoclonal antibody (mAb35, National Hospital Organization Nagasaki Kawatana Medical Center) dissolved in PBS (pH 7.4) as a drug for inducing the pathology of myasthenia gravis was administered intraperitoneally to all animals at 200 µg/rat (Day 0). The vehicle, which was a solvent of the compound, was phosphate-buffered saline (PBS) at pH 7.4 containing 20% hydroxypropyl-β-cyclodextrin and 0.02% polysorbate 80 (the same applies to Example 3(2)).
Next, the body weight of the animals was measured before antibody administration (pre) and at 0, 9, 24, 33, 48, 57, and 72 hours (hr) after antibody administration. The movement, muscle strength, and grip strength of the animals were evaluated by the following tests. […]
as §1, with “(n=24,” for “(n=20,”, “(0.5” for “(3”, “(0.25” for “(2”, “(0.1” for “(1”, “0).” for “0). The vehicle, which was a solvent of the compound, was phosphate-buffered saline (PBS) at pH 7.4 containing 20% hydroxypropyl-β-cyclodextrin and 0.02% polysorbate 80 (the same applies to Example 3(2)).”
The movement of the animals was evaluated at each time point of 9, 24, 33, 48, 57, and 72 hours (hr) after antibody administration according to six-level evaluation criteria (Score). The evaluation criteria were the same as those in (1) B above. […]

MuSK dimerization (human MuSK; compound concentration exceeded 40 nM): conversely tended to decrease
luminescence (MuSK dimerization) (human MuSK; concentration range from the pM order to 40 nM): increased in a dose-dependent manner
Structure (SMILES): CCCCCCCCCCCCCCCC(=O)NCCCC[C@H](NC(=O)[C@H](CNC(=O)CCOCCOCCOCCNC(=O)CNC(=O)[C@@H]1CSCC(=O)N[C@H](Cc2ccc(O)cc2)C(=O)N2CCC[C@H]2C(=O)N[C@@H](CO)C(=O)N[C@@H](Cc2ccc(O)cc2)C(=O)N[C@@H](Cc2c[nH]cn2)C(=O)N[C@@H]([C@@H](C)O)C(=O)N[C@@H](CC(N)=O)C(=O)N[C@@H](C(C)C)C(=O)N[C@@H](C(C)C)C(=O)N[C@@H](C)C(=O)N[C@@H](CO)C(=O)N[C@@H](CC(C)C)C(=O)N[C@@H](CCCCN)C(=O)N[C@@H](CCCNC(=N)N)C(=O)N1)NC(=O)CCOCCOCCOCCNC(=O)CNC(=O)[C@@H]1CSCC(=O)N[C@H](Cc2ccc(O)cc2)C(=O)N2CCC[C@H]2C(=O)N[C@@H](CO)C(=O)N[C@@H](Cc2ccc(O)cc2)C(=O)N[C@@H](Cc2c[nH]cn2)C(=O)N[C@@H]([C@@H](C)O)C(=O)N[C@@H](CC(N)=O)C(=O)N[C@@H](C(C)C)C(=O)N[C@@H](C(C)C)C(=O)N[C@@H](C)C(=O)N[C@@H](CO)C(=O)N[C@@H](CC(C)C)C(=O)N[C@@H](CCCCN)C(=O)N[C@@H](CCCNC(=N)N)C(=O)N1)C(N)=O [MuSK7-pal] (I: {CH2CO}-[dY]PSYHTNVVASLKRCG[PEG3][Dap]K(Palmitoyl)-NH2 / II: {CH2CO}-[dY]PSYHTNVVASLKRCG[PEG3]; amide I:18-II:C; thioether I:N-I:15, II:N-II:15)
body weight change (rat PTMG model; 0.1 mg/kg intravenous (Group D, low-dose study)): the degree of decrease in body weight was milder than that in Group A
body weight change (rat PTMG model; 0.25 mg/kg intravenous (Group C, low-dose study)): the degree of decrease in body weight was milder than that in Group A
body weight change (rat PTMG model; 0.5 mg/kg intravenous (Group B, low-dose study)): the degree of decrease in body weight was milder than that in Group A
body weight change (rat PTMG model; 2 mg/kg intravenous (Group C, high-dose study)): the degree of decrease in body weight was milder than that in Group A
body weight change (rat PTMG model; 3 mg/kg intravenous (Group B, high-dose study)): the degree of decrease in body weight was milder than that in Group A
